ChEMBL document CHEMBL5506062, “Discovery and Optimization of N-Arylated Tetracyclic Dicarboximides That Target Primary Glioma Stem-like Cells” (J Med Chem, 2024)

Legend:
Format in all cases: ADME, organism-based
[1] = Cmax in female CD-1 mouse plasma at 10 mg/kg, ip measured after 10 to 1440 mins by LC-MS/MS analysis
[2] = Tmax in female CD-1 mouse plasma at 10 mg/kg, ip measured after 10 to 1440 mins by LC-MS/MS analysis
[3] = AUClast in female CD-1 mouse plasma at 10 mg/kg, ip measured after 10 to 1440 mins by LC-MS/MS analysis
[4] = Cmax in female CD-1 mouse brain at 10 mg/kg, ip measured after 10 to 1440 mins by LC-MS/MS analysis
[5] = Tmax in female CD-1 mouse brain at 10 mg/kg, ip measured after 10 to 1440 mins by LC-MS/MS analysis
[6] = AUClast in female CD-1 mouse brain at 10 mg/kg, ip measured after 10 to 1440 mins by LC-MS/MS analysis; conditions: in vivo
[7] = Ratio of drug concentration in brain to plasma in female CD-1 mouse at 10 mg/kg, ip measured after 10 to 1440 mins by LC-MS/MS analysis; conditions: brain and plasma, read-out: K(p,uu,brain)
[8] = Cmax in female CD-1 mouse plasma at 5 mg/kg, iv measured after 0 to 1440 mins by LC-MS/MS analysis
[9] = Tmax in female CD-1 mouse plasma at 5 mg/kg, iv measured after 0 to 1440 mins by LC-MS/MS analysis
[10] = AUClast in female CD-1 mouse plasma at 5 mg/kg, iv measured after 0 to 1440 mins by LC-MS/MS analysis
[11] = Cmax in female CD-1 mouse brain at 5 mg/kg, iv measured after 0 to 1440 mins by LC-MS/MS analysis
[12] = Tmax in female CD-1 mouse brain at 5 mg/kg, iv measured after 0 to 1440 mins by LC-MS/MS analysis
[13] = AUClast in female CD-1 mouse brain at 5 mg/kg, iv measured after 0 to 1440 mins by LC-MS/MS analysis; conditions: in vivo
[14] = Cmax in female CD-1 mouse plasma at 20 mg/kg, po measured after 0 to 1440 mins by LC-MS/MS analysis
[15] = Tmax in female CD-1 mouse plasma at 20 mg/kg, po measured after 0 to 1440 mins by LC-MS/MS analysis
[16] = AUClast in female CD-1 mouse plasma at 20 mg/kg, po measured after 0 to 1440 mins by LC-MS/MS analysis
[17] = Cmax in female CD-1 mouse brain at 20 mg/kg, po measured after 0 to 1440 mins by LC-MS/MS analysis
[18] = Tmax in female CD-1 mouse brain at 20 mg/kg, po measured after 0 to 1440 mins by LC-MS/MS analysis
[19] = AUClast in female CD-1 mouse brain at 20 mg/kg, po measured after 0 to 1440 mins by LC-MS/MS analysis; conditions: in vivo
[20] = Oral bioavailability in female CD-1 mouse plasma at 20 mg/kg measured after 0 to 1440 mins by LC-MS/MS analysis
[21] = Oral bioavailability in female CD-1 mouse brain at 20 mg/kg measured after 0 to 1440 mins by LC-MS/MS analysis
[22] = Cmax in female CD-1 mouse brain at 20 mg/kg, po measured at 90 mins by LC-MS/MS analysis
[23] = Drug concentration in female CD-1 mouse plasma at 20 mg/kg, po measured at 30 mins by LC-MS/MS analysis
[24] = Drug concentration in female CD-1 mouse brain at 20 mg/kg, po measured at 30 mins by LC-MS/MS analysis; conditions: read-out: Ct
[25] = Drug concentration in female CD-1 mouse liver at 20 mg/kg, po measured at 30 mins by LC-MS/MS analysis; conditions: read-out: Ct

O=C(COc1ccc(N2C(=O)[C@@H]3[C@@H]4C=C[C@@H]([C@H]5C[C@@H]45)[C@@H]3C2=O)cc1)c1cc(Cl)cc(Cl)c1
Cmax [1]: 1300 ng/mL | Tmax [2]: 30 min | AUC(0-t) [3]: 4830 ng·h/mL | Cmax [4]: 2530 ng/g | Tmax [5]: 90 min | AUClast [6]: 720503 ng·min/g | Kp uu [7]: 2.49 | Cmax [8]: 12000 ng/mL | Tmax [9]: 5 min | AUC(0-t) [10]: 14800 ng·h/mL | Cmax [11]: 3260 ng/g | Tmax [12]: 5 min | AUClast [13]: 767638 ng·min/g | Cmax [14]: 3400 ng/mL | Tmax [15]: 30 min | AUC(0-t) [16]: 23100 ng·h/mL | Cmax [17]: 2380 ng/g | Tmax [18]: 90 min | AUClast [19]: 1774789 ng·min/g | bioavailability [20]: 39% | bioavailability [21]: 58% | Cmax at […] [22]: 2380 ng/g | concentration at 0.5 h [23]: 1430 ng/mL | concentration at 0.5 h [24]: 1160 ng/g | concentration at 0.5 h [25]: 11500 ng/g

COc1ccc(C(=O)C2CC2c2ccc(N3C(=O)[C@@H]4[C@@H]5C=C[C@@H]([C@H]6C[C@@H]56)[C@@H]4C3=O)cc2)cc1 (stereo partly specified)
Cmax [1]: 887 ng/mL | Tmax [2]: 10 min | AUC(0-t) [3]: 4350 ng·h/mL | Cmax [4]: 992 ng/g | Tmax [5]: 30 min | AUClast [6]: 294638 ng·min/g | Kp uu [7]: 1.13

COc1ccc(C(=O)C2CC2c2ccc(N3C(=O)[C@@H]4[C@@H]5C=C[C@@H]([C@H]6C[C@@H]56)[C@@H]4C3=O)c(F)c2)cc1Cl (stereo partly specified)
Cmax [1]: 1970 ng/mL | Tmax [2]: 30 min | AUC(0-t) [3]: 7340 ng·h/mL | Cmax [4]: 1110 ng/g | Tmax [5]: 30 min | AUClast [6]: 220405 ng·min/g | Kp uu [7]: 0.5

O=C(COc1cnc(N2C(=O)[C@@H]3[C@@H]4C=C[C@@H]([C@H]5C[C@@H]45)[C@@H]3C2=O)nc1)c1ccc(Cl)c(Cl)c1
Cmax [1]: 3440 ng/mL | Tmax [2]: 10 min | AUC(0-t) [3]: 4780 ng·h/mL | Cmax [4]: 978 ng/g | Tmax [5]: 30 min | AUClast [6]: 83823 ng·min/g | Kp uu [7]: 0.29
